Where no end group is shown, it is not given here.
System: psoriatic lesion(s)
Assay: Pre-psoriatic rim topical administration and treatment of psoriasis
Assay type: in vivo
Description: In one embodiment, a composition for topical administration was prepared using the peptide CGRP8-37 in a topical formulation at 20 μg/g. The effective range of the peptide in the composition can be between 0.00001 μg/g to […], depending on formulation and measured penetration parameters. The described composition was applied to an area at least partially around the psoriatic lesion(s), termed the pre-psoriatic rim, which was determined using well known laser Doppler flowmetry. […] 10 μg/g of the peptide was applied twice daily for 4 weeks. The composition was purposely not applied directly to the lesion. Without being held to a single theory, a novel local neural transport mechanism appears to be responsible for the effects observed by the pre-psoriatic rim administration resulting in treatment of psoriasis. Topical steroids are usually applied directly on lesions as is the convention for most topical treatments. Topical steroid molecules are much smaller (<500 Da) then CGRP8-37 (3100 Da) and therefore can more easily penetrate thick skin, topical steroids also have a side-effect on normal skin causing skin atrophy in some cases. That is why, for steroids and some other topical remedies e.g. tar (being irritating to normal skin), applying around the lesion is not recommended. […]

With “CGRP8-37: CGRP derivative peptide, high affinity CGRP receptor antagonist; sequence SEQ ID NO:1 or SEQ ID NO:2; used in topical formulation (VTHRLAGLLSRSGGVVKNNFVPTNVGSKAF; ends and bridges not checked; UniProt P06881 90-119, looked up, fragment)” the “improvement at low dosage” value (applied around the lesion, doses as low as 1 μg/g of topical formulation) was “significant improvement” and the “response of psoriatic lesion (plaque on right shoulder, FIGS. 8-10)” value (topical composition applied to pre-psoriatic rim, not directly to the lesion, 10 μg/g of the peptide twice daily for 4 weeks) was “clearing completely”.
